What was measured:
AMPA receptor = assay: In vivo electrophysiology: amplitude of field EPSP in dentate gyrus of anesthetized animals; set-up: species or system rat; settings: for In vivo Electrophysiology: % increase in the amplitude of the field EPSP in the dentate gyrus of rat: 10 mpk i.p.
Experimental: (§1) The electrophysiological effects of the invention compounds were tested in vivo in anesthetized animals according to the following procedures. Animals are maintained under anesthesia by phenobarbital administered using a Hamilton syringe pump. Stimulating and recording electrodes are inserted into the perforant path and dentate gyrus of the hippocampus, respectively. Once electrodes are implanted, a stable baseline of evoked responses are elicited using single monophasic pulses (100 μs pulse duration) delivered at 3/min to the stimulating electrode. Field EPSPs are monitored until a stable baseline is achieved (about 20-30 min), after which a solution of test compound is injected intraperitoneally and evoked field potentials are recorded. Evoked potentials were recorded for approximately 2 h following drug administration or until the amplitude of the field EPSP returns to baseline. In the latter instance, it is common that an iv administration is also carried out with an appropriate dose of the same test compound. Invention compounds were assayed in the in vivo electrophysiology assay described above and data for representative test compounds is shown in the Table.
The electrophysiological effects of invention compounds were tested in vivo in anesthetized animals according to the following procedures.
as §1, with “Animals” for “The electrophysiological effects of the invention compounds were tested in vivo in anesthetized animals according to the following procedures. Animals”, “are” for “were”, “compound.” for “compound. Invention compounds were assayed in the in vivo electrophysiology assay described above and data for representative test compounds is shown in the Table.”

O=C(c1ccc2nccnc2c1)N1CCCCC1 [CX516, 1-(quinoxalin-6-ylcarbonyl)piperdine, reference compound]
increase in amplitude of the field EPSP (AMPA receptor; rat dentate gyrus, 50 mg/kg i.p.): 9%

O=C(c1ccc2nonc2c1)N1C2CCCC1COC2 [Example 2, [2,1,3]-Benzoxadiazol-5-yl(3-oxa-9-azabicyclo[3.3.1]non-9-yl)methanone]
melting point: 128 to 130 °C | In vivo Electrophysiology: % increase in the amplitude of the field EPSP in the dentate gyrus of rat (AMPA receptor): 16%

O=C(c1ccc2nonc2c1)N1C2CCC1COC2 [Example 1, [2,1,3]-Benzoxadiazol-5-yl(3-oxa-8-azabicyclo[3.2.1]oct-8-yl)methanone]
melting point: 139 to 140 °C | In vivo Electrophysiology: % increase in the amplitude of the field EPSP in the dentate gyrus of rat (AMPA receptor): 17%

O=C(c1ccc2nonc2c1)N1C2COCC1COC2 [Example 3, [2,1,3]-Benzoxadiazol-5-yl(3,7-dioxa-9-azabicyclo[3.3.1]non-9-yl)methanone]
melting point: 197 to 199 °C | In vivo Electrophysiology: % increase in the amplitude of the field EPSP in the dentate gyrus of rat (AMPA receptor): 15%
